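48-hour exposure; five concentrations; linearly interpolated endpoints. At the GI50, growth is halved. TGI denotes the concentration required for complete inhibition of growth.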
What was measured:
Assay in all cases: NCI anticancer screen, dose series, 48 h
[1] = tested on: SF-295 CNS
[2] = tested on: SF-268 CNS
[3] = tested on: SNB-19 CNS
[4] = tested on: RPMI-8226 leukemia
[5] = tested on: HCC-2998 colon
[6] = tested on: HT29 colon
[7] = tested on: UO-31 renal
[8] = tested on: SNB-75 CNS
[9] = tested on: HCT-116 colon
[10] = tested on: BT-549 breast

Compound	TGI [1]	TGI [2]	TGI [3]	TGI [4]	TGI [5]	TGI [6]	TGI [7]	TGI [8]	TGI [9]	TGI [10]	GI50 [1]	GI50 [9]	GI50 [2]	GI50 [3]	GI50 [4]	GI50 [5]	GI50 [6]	GI50 [7]	GI50 [8]	GI50 [10]
COC(=O)c1cc2c(=O)n(C)c3ccccc3n2c1C(=O)OC	> 100 µM	> 100 µM	> 100 µM	> 100 µM	> 100 µM	> 100 µM	> 100 µM	37.3 µM	–	–	–	–	–	–	–	–	–	–	–	–
C=C[C@@H](C)[C@]1(C(=O)OC)CCCC12OCCO2	> 100 µM	> 100 µM	> 100 µM	> 100 µM	> 100 µM	> 100 µM	> 100 µM	> 100 µM	> 100 µM	–	–	–	–	–	–	–	–	–	–	–
Cc1cnc2ccc(C)c([N+](=O)[O-])c2c1NCCCN(C)C	> 100 µM	> 100 µM	> 100 µM	> 100 µM	> 100 µM	> 100 µM	> 100 µM	–	> 100 µM	–	–	–	–	–	–	–	–	–	–	–
N#C/C(=C\c1cc(O)cc(O)c1)C(N)=O	> 100 µM	> 100 µM	> 100 µM	> 100 µM	> 100 µM	> 100 µM	> 100 µM	> 100 µM	> 100 µM	–	–	–	–	–	–	–	–	–	–	–
CN(CCS(=O)(=O)N1C(=O)C2CCCN2C(=O)[C@@H]1Cc1ccccc1)C(=O)OCc1ccccc1 (stereo partly drawn)	> 100 µM	> 100 µM	> 100 µM	45.4 µM	> 100 µM	> 100 µM	> 100 µM	> 100 µM	> 100 µM	–	–	–	–	–	–	–	–	–	–	–
COc1ccc(Cc2c3cc(O)c(=O)cc-3ccn2C)cc1	> 100 µM	98.2 µM	> 100 µM	> 100 µM	> 100 µM	> 100 µM	> 73 µM	> 100 µM	> 100 µM	–	–	–	–	–	–	–	–	–	–	–
O=C(O)c1cc(-c2ccc3cc4c(cc3c2)OCO4)nc2ccccc12	> 100 µM	> 100 µM	> 100 µM	> 100 µM	–	> 100 µM	28.1 µM	> 100 µM	> 100 µM	> 100 µM	–	–	–	–	–	–	–	–	–	–
O=C1[C@H]2ON(c3ccccc3)C(c3ccc([N+](=O)[O-])cc3)[C@H]2C(=O)N1c1ccc(Cc2ccc(N3C(=O)[C@@H]4ON(c5ccccc5)C(c5ccc([N+](=O)[O-])cc5)[C@@H]4C3=O)cc2)cc1 (stereo partly drawn)	> 100 µM	> 100 µM	> 100 µM	> 100 µM	> 100 µM	> 100 µM	> 100 µM	> 100 µM	> 100 µM	–	–	–	–	–	–	–	–	–	–	–
CC1(C)OC2C(CCP(=O)(O)O)OC(c3nc(C(N)=O)cs3)C2O1 (stereo not drawn)	–	> 100 µM	> 100 µM	> 100 µM	> 100 µM	> 100 µM	> 100 µM	> 100 µM	> 100 µM	–	–	–	–	–	–	–	–	–	–	–
Cc1nc2sccn2c1C(=O)NN	> 100 µM	> 100 µM	> 100 µM	> 100 µM	> 100 µM	> 100 µM	–	–	> 100 µM	–	–	–	–	–	–	–	–	–	–	–
CC(C)(C)C1=CC(=C(P(=O)(O)O)P(=O)(O)O)C=C(C(C)(C)C)C1=O	> 50 µM	> 50 µM	> 50 µM	> 50 µM	> 50 µM	> 50 µM	> 50 µM	> 50 µM	> 50 µM	–	–	–	–	–	–	–	–	–	–	–
COc1ccc(C(c2ccccc2)(c2ccc(OC)cc2)N2C(=O)NC3C(CCCCC(=O)NCCCCCCOP(OCCC#N)N(C(C)C)C(C)C)SCC32)cc1 (stereo not drawn)	31.2 µM	30.6 µM	–	–	31.6 µM	31.7 µM	27.5 µM	–	24.9 µM	–	–	–	–	–	–	–	–	–	–	–
CC(C)N(C(=O)C12C3C4C5(C#N)C3C1(C#N)C5C42C#N)C(C)C (stereo not drawn)	> 100 µM	> 100 µM	> 100 µM	> 100 µM	> 100 µM	> 100 µM	> 100 µM	> 100 µM	> 100 µM	–	–	–	–	–	–	–	–	–	–	–
O=C(CCC(=O)Nc1ccc(Cl)c(Cl)c1)Cc1nc2ccccc2o1	> 100 µM	> 100 µM	> 100 µM	> 100 µM	> 100 µM	> 100 µM	> 100 µM	> 100 µM	> 100 µM	–	–	–	–	–	–	–	–	–	–	–
CC(=O)Nc1ccc(/C=C/C(=O)c2sc(-c3cccnc3)nc2C)cc1	> 100 µM	> 100 µM	–	> 100 µM	> 100 µM	> 100 µM	> 100 µM	> 100 µM	–	–	–	–	–	–	–	–	–	–	–	–
O=C(C(=O)c1cc2ccccc2[nH]1)c1cc2ccccc2[nH]1	> 347 µM	> 347 µM	> 347 µM	> 110 µM	> 347 µM	> 347 µM	> 347 µM	> 347 µM	> 347 µM	–	–	–	–	–	–	–	–	–	–	–
O=c1c2c(nc3n1CCS3)[nH]c1cc([N+](=O)[O-])ccc12	> 100 µM	> 100 µM	> 100 µM	> 100 µM	> 100 µM	> 100 µM	> 100 µM	> 100 µM	> 100 µM	–	> 100 µM	> 100 µM	> 100 µM	> 100 µM	> 100 µM	> 100 µM	> 100 µM	> 100 µM	57.1 µM	–

Compound	TGI [1]	TGI [2]	TGI [3]	TGI [4]	TGI [5]	TGI [6]	TGI [7]	TGI [8]	TGI [9]	TGI [10]	GI50 [1]	GI50 [9]	GI50 [2]	GI50 [3]	GI50 [4]	GI50 [5]	GI50 [6]	GI50 [7]	GI50 [8]	GI50 [10]
OCC1C(OCc2ccccc2)C(OCc2ccccc2)C(OCc2ccccc2)CN1Cc1ccccc1 (stereo not drawn)	> 100 µM	> 100 µM	> 100 µM	–	> 100 µM	34.6 µM	37.3 µM	31.2 µM	81.5 µM	–	–	–	–	–	–	–	–	–	–	–
CC1=N/C(=C/c2ccc3c(c2)OCO3)C(=O)O1	–	> 100 µM	> 100 µM	> 100 µM	–	> 100 µM	> 100 µM	> 100 µM	> 100 µM	–	–	–	–	–	–	–	–	–	–	–
NNC(=O)C(=O)N/N=C(\CCCC(=O)Nc1ccc(Cl)cc1)CC(=O)c1ccc(F)cc1	> 100 µM	> 100 µM	> 100 µM	> 100 µM	> 100 µM	> 100 µM	> 100 µM	> 100 µM	> 100 µM	–	–	–	–	–	–	–	–	–	–	–
C=CCC1(CN(C)C)CC/C(=C\c2ccc(OC)cc2)C1=O (stereo not drawn)	> 100 µM	> 100 µM	> 100 µM	52.6 µM	> 100 µM	> 100 µM	> 100 µM	> 100 µM	> 100 µM	–	–	–	–	–	–	–	–	–	–	–
CCOC(OC(C)=O)[C@@H]1C=C[C@H](C)N(c2ccc([N+](=O)[O-])cc2)O1 (stereo partly drawn)	27.4 µM	15.6 µM	37.4 µM	5.45 µM	26.3 µM	11.4 µM	9.16 µM	25.9 µM	2.61 µM	–	–	–	–	–	–	–	–	–	–	–
O=C(O)CSc1n[nH]c(=O)[nH]c1=O	> 100 µM	> 100 µM	> 100 µM	> 100 µM	–	> 100 µM	> 100 µM	> 100 µM	> 100 µM	> 100 µM	–	–	–	–	–	–	–	–	–	–
O=C(/C=C\c1ccccc1O)c1ccc(O)cc1O	> 100 µM	> 100 µM	> 100 µM	> 100 µM	> 100 µM	> 100 µM	> 100 µM	–	> 100 µM	–	–	–	–	–	–	–	–	–	–	–
Cc1ccc(C)c(N2C(=O)C(=O)C(c3nc4ccccc4s3)/C(=N/N)C2=O)c1 (stereo not drawn)	> 33.5 µM	> 100 µM	> 100 µM	> 100 µM	> 100 µM	> 100 µM	> 100 µM	> 100 µM	> 100 µM	–	–	–	–	–	–	–	–	–	–	–
CCN(CC)CCCNc1nccc2c(C)c3c(cc12)c1cnccc1n3C	1.31 µM	1.69 µM	1.51 µM	–	0.256 µM	1.02 µM	2.32 µM	1.74 µM	0.378 µM	–	–	–	–	–	–	–	–	–	–	–
CCC[C@H]1O[C@@H]2CC(=O)O[C@@H]2C2=C1C(=O)C=CC2=O	55.8 µM	18.7 µM	> 100 µM	74.6 µM	> 57 µM	43.3 µM	32.5 µM	36 µM	32.1 µM	–	–	–	–	–	–	–	–	–	–	–
COC1CCC(OS(C)(=O)=O)C(CO)O1 (stereo not drawn)	> 100 µM	–	–	–	> 100 µM	> 100 µM	> 100 µM	> 100 µM	> 100 µM	–	–	–	–	–	–	–	–	–	–	–
Cc1c(C)c2ccc3oc4ccccc4c3c2oc1=O	> 100 µM	> 100 µM	> 100 µM	> 100 µM	> 100 µM	> 100 µM	> 100 µM	> 100 µM	> 100 µM	–	–	–	–	–	–	–	–	–	–	–
C/C(=N\N=C(N)N)C(CN1CCCCC1)C(c1ccccc1)c1c(O)c2ccccc2oc1=O (stereo not drawn)	> 100 µM	> 100 µM	> 100 µM	> 100 µM	> 100 µM	> 100 µM	–	> 100 µM	> 100 µM	–	–	–	–	–	–	–	–	–	–	–
CCOC(=O)c1cc(C(=O)c2ccc(OC)cc2)n2ccc(/C=C/c3cc[n+](CC(=O)c4ccc(OC)cc4)cc3)cc12	> 100 µM	4.52 µM	4.06 µM	4.85 µM	–	4.55 µM	> 100 µM	–	3.36 µM	–	> 100 µM	1.55 µM	2.09 µM	1.73 µM	1.65 µM	–	1.81 µM	> 100 µM	–	–
COc1cc2cc(OC(C)=O)c3cc4c(cc3c2c(OC)c1OC)OCO4	> 100 µM	> 100 µM	> 100 µM	–	> 100 µM	> 100 µM	> 100 µM	> 100 µM	> 100 µM	–	–	–	–	–	–	–	–	–	–	–
O=C1C=C(Nc2ccc(Cl)cc2Cl)c2ccccc2C1=O	> 100 µM	> 100 µM	> 100 µM	> 100 µM	> 100 µM	> 100 µM	> 100 µM	70.4 µM	> 100 µM	–	–	–	–	–	–	–	–	–	–	–
OC(CNc1ccnc2cc(Cl)ccc12)CNc1ccnc2cc(Cl)ccc12	3.56 µM	–	–	11.1 µM	–	–	38 µM	3.03 µM	3.09 µM	3.13 µM	1.82 µM	1.72 µM	–	–	3 µM	–	–	17 µM	1.5 µM	1.67 µM

From PubChem BioAssay (NCI)
